Measured values: patent US8106055B2, “Substituted amide compounds” (Gruenenthal GmbH, priority 2007, dated 2012)

What follows are compounds tested against T1, human μ opiate receptor (Homo sapiens, UniProt P35372) (assay: Affinity for the human μ opiate receptor ([3H]-naloxone displacement, CHO-K1 receptor membrane preparation, SPA)). Details: 1.5 h, Table 2; test concentration 1 μM; read-out: μ receptor.
T1 construct: purchased PerkinElmer Life Sciences, Zaventem, Belgium RB-HOM; host or cells: CHO-K1 cells (membrane preparation)
T1 sequence (P35372 whole entry): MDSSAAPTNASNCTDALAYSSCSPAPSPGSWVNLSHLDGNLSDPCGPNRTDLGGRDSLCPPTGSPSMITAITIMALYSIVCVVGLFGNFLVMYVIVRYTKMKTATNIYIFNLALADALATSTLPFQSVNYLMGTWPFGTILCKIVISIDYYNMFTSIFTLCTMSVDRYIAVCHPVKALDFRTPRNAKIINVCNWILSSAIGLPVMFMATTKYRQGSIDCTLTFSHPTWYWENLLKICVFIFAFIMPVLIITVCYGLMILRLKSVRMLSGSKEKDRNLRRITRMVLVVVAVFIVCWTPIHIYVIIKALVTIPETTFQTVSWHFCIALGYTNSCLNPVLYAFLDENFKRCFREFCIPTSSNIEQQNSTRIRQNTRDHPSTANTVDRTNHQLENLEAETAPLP
Type: binding
Summary of the method: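 Readout is percent displacement of [3H]-naloxone (1 nmol/l) from human μ receptor in CHO-K1 membranes, measured at 1 μmol/l compound. Incubation runs 90 minutes at room temperature with WGA-SPA beads in Tris-HCl/BSA buffer; non-specific binding is defined with 100 μmol/l naloxone.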

SMILES	inhibition at 1 µM [%]
O=C(COCCN(C1CC1)S(=O)(=O)c1c(Cl)cc(Cl)cc1Cl)NC1CCC(C(c2ccccc2)N2CCCC2)CC1 (stereo not drawn) [Example 603, 2-{2-[cyclopropyl-(2,4,6-trichlorobenzenesulfonyl)-amino]-ethoxy}-N-[4-(phenylpyrrolidin-1-ylmethyl)-cyclohexyl]-acetamide]	45
CN(CCOCC(=O)NC1CCC(C(c2ccccc2)N2CCCC2)CC1)S(=O)(=O)c1c(Cl)cc(Cl)cc1Cl (stereo not drawn) [Example 606, 2-{2-[methyl-(2,4,6-trichlorobenzenesulfonyl)-amino]-ethoxy}-N-[4-(phenylpyrrolidin-1-yl-methyl)-cyclohexyl]-acetamide]	46
CN(C)C(c1ccccc1)C1CCC(NC(=O)COC2CCCN(S(=O)(=O)c3c(Cl)cc(Cl)cc3Cl)C2)CC1 (stereo not drawn) [Example 608, N-[4-(dimethylaminophenylmethyl)-cyclohexyl]-2-[1-(2,4,6-trichlorobenzenesulfonyl)-piperidin-3-yloxy]-acetamide]	89
CN(C)C(c1ccccc1)C1CCC(NC(=O)COC2CCN(S(=O)(=O)c3c(Cl)cc(Cl)cc3Cl)C2)CC1 (stereo not drawn) [Example 609, N-[4-(dimethylaminophenylmethyl)-cyclohexyl]-2-[1-(2,4,6-trichlorobenzenesulfonyl)-pyrrolidin-3-yloxy]-acetamide]	94
CN(C)C(c1ccccc1)C1CCC(NC(=O)COCC2CCCN2S(=O)(=O)c2c(Cl)cc(Cl)cc2Cl)CC1 (stereo not drawn) [Example 611, N-[4-(Dimethylaminophenylmethyl)-cyclohexyl]-2-[1-(2,4,6-trichlorobenzenesulfonyl)-pyrrolidin-2-ylmethoxy]-acetamide]	93
CN(C)C(c1ccccc1)C1CCC(CNC(=O)COCCN(C)S(=O)(=O)c2c(Cl)cc(Cl)cc2Cl)CC1 (stereo not drawn) [Example 614, N-[4-(dimethylaminophenylmethyl)-cyclohexylmethyl]-2-{2-[(2,4,6-trichlorobenzenesulfonyl)-methylamino]-ethoxy}-acetamide]	96
CN(C)C(c1ccccc1)C1CCC(NC(=O)COCCN(C)S(=O)(=O)c2c(Cl)cc(Cl)cc2Cl)C1 (stereo not drawn) [Example 615, N-[3-(dimethylaminophenylmethyl)-cyclopentyl]-2-{2-[(2,4,6-trichlorobenzenesulfonyl)-methylamino]-ethoxy}-acetamide]	89

Same assay, conditions: Table 2; test concentration 1 μM

SMILES	μ receptor [% inhibition]
CN(C)C(c1ccccc1)C1CCC(NC(=O)COCC2CCCN2S(=O)(=O)c2c(Cl)cc(Cl)cc2Cl)CC1 (stereo not drawn) [Example 612, N-[4-(Dimethylaminophenylmethyl)-cyclohexyl]-2-[1-(2,4,6-trichlorobenzenesulfonyl)-pyrrolidin-2-ylmethoxy]-acetamide]	88
CN(C)C(c1ccccc1)C1CCC(NC(=O)COCC2CCCN2S(=O)(=O)c2c(Cl)cc(Cl)cc2Cl)CC1 (stereo not drawn) [Example 613, N-[4-(Dimethylaminophenylmethyl)-cyclohexyl]-2-[1-(2,4,6-trichlorobenzenesulfonyl)-pyrrolidin-2-ylmethoxy]-acetamide]	90

Same assay, conditions: test concentration of 1 μM

SMILES	μ (binding on the μ opioid receptor, % inhibition) [%]
COc1ccc(S(=O)(=O)N2CCC(OCC(=O)NCCC3CCC(C(c4cccc(F)c4)N(C)C)CC3)C2)cc1OC (stereo not drawn) [Example 262]	82
CN(C)C(c1ccc(Cl)cc1)C1CCC(CNC(=O)COCCN(C)S(=O)(=O)c2ccc(F)cc2)CC1 (stereo not drawn) [Example 263]	72
Cc1cc(C)c(S(=O)(=O)N2CCC(OCC(=O)NCCC3CCC(C(c4cccc(F)c4)N(C)C)CC3)C2)c(C)c1 (stereo not drawn) [Example 264]	77
COc1cc(C)c(S(=O)(=O)N2CCC(OCC(=O)NCC3CCC(C(c4cccc(F)c4)N(C)C)CC3)C2)c(C)c1 (stereo not drawn) [Example 265]	79
CN(C)C(c1cccc(F)c1)C1CCC(NC(=O)COCC2CCCN(S(=O)(=O)c3ccccc3)C2)CC1 (stereo not drawn) [Example 266]	74
CN(C)C(c1ccc(F)cc1)C1CCC(CNC(=O)COCC2CCCN2S(=O)(=O)c2ccc(Cl)c(Cl)c2)CC1 (stereo not drawn) [Example 267]	73
COc1ccc(S(=O)(=O)N2CCCC2COCC(=O)NC2CCC(C(c3cccc(F)c3)N(C)C)CC2)cc1 (stereo not drawn) [Example 268]	70
CN(C)C(c1ccc(Cl)cc1)C1CCC(CNC(=O)COC2CCCCC2N(C)S(=O)(=O)c2ccc(Cl)c(Cl)c2)CC1 (stereo not drawn) [Example 269]	74
CN(C)C(c1cccc(F)c1)C1CCC(NC(=O)COC2CCN(S(=O)(=O)c3ccccc3)C2)CC1 (stereo not drawn) [Example 271]	72
Cc1ccc(S(=O)(=O)N2CCC(OCC(=O)NCCC3CCC(C(c4cccs4)N(C)C)CC3)C2)cc1 (stereo not drawn) [Example 272]	73
Cc1ccc(S(=O)(=O)N(C)CCOCC(=O)NCC2CCC(C(c3ccc(Cl)cc3)N(C)C)CC2)cc1 (stereo not drawn) [Example 273]	68
CN(C)C(c1ccc(Cl)cc1)C1CCC(CCNC(=O)COCCN(C)S(=O)(=O)c2c(Cl)cccc2Cl)CC1 (stereo not drawn) [Example 274]	68
CN(C)C(c1cccc(F)c1)C1CCC(CNC(=O)COC2CCN(S(=O)(=O)c3ccc(F)cc3)C2)CC1 (stereo not drawn) [Example 275]	71
CN(C)C(c1cccs1)C1CCC(CNC(=O)COC2CCN(S(=O)(=O)c3ccccc3)CC2)CC1 (stereo not drawn) [Example 276]	78
CN(C)C(c1cccc(F)c1)C1CCC(NC(=O)COC2CCCN(S(=O)(=O)c3ccccc3)C2)CC1 (stereo not drawn) [Example 277]	68
